Broadly, the LC50 is the concentration lethal to half of the exposed cells or organisms. Read a low LC50 as greater toxicity.

The subject of one data set is Escherichia coli. Put plainly: Anti-Escherichia coli activity test (paper sheet / dilution multiple method). The data set is classed as cell-based. On the procedure: The samples are preliminarily tested and compared with the positive control, namely the rifampicin under the situation that each sample is 100 μg/tablet and the rifampicin taken as a standard product is 1 μg/tablet.

Another data set deals with Artemia larvae. Briefly: Artemia larva lethal test. The data set is classed as in vivo. Conditions: for LC50: Artemia larvae, 24 h at room temperature, from corrected mortality; for LC50 value: against Artemia larvae; for lethal Artemia activity (in words): in vivo. Here is the method:
(§1) Hatching of Artemia larvae: placing 100 mg of Artemia eggs in a 500 mL beaker, adding 400 mL of artificial sea water, inflating air slowly by using a small inflator pump, hatching at room temperature for 24 h, removing egg shells and the unhatched eggs, and continuously culturing the Artemia larvae for 24 h for later use.
(§2) The biological lethal method of the Artemia larvae is as follows: taking a 96-well cell culture plate according to a Solis improvement method, and adding 2004, of artificial sea water solution containing 10-15 Artemia in each well to prepare a test culture plate. […] A blank control group and sample groups of each concentration are respectively provided with three parallel holes, 54, of the sample solvent (DMSO) is added for the blank control group, 54, of the sample solutions of different concentrations are respectively added into the sample groups, and the final concentrations are 500 μg/mL, 50 μg/mL and 5 μg/mL respectively. The culture is performed at room temperature for 24 h, and then the number of dead individuals of the Artemia larvae is detected and counted under a binocular dissecting microscope. The biological lethal activity of the Artemia larvae is represented by corrected mortality and is calculated according to the following formula: Corrected mortality=(survival rate of control group−survival rate of treated group)/survival rate of control group×100%
(§3) The three concentrations and the corresponding corrected mortalities are input into a computer for respectively calculating LC50 and 95% confidence interval thereof.

Data set [1] deals with Vibrio anguillarum. The note with it: cited from earlier work; for MIC: against Vibrio anguillarum, values of compounds 2, 3 and 4 referred to Fdhila F et al., Journal of Natural Products, 2003, 66 (10): 1299-1301; for activity against Vibrio anguillarum (in words): compounds 2-4, based on Fdhila F et al.
The subject of data set [2] is Vibrio anguillarum. Briefly: Anti-Vibrio anguillarum activity test (paper sheet / dilution multiple method). The data set is classed as cell-based. On the procedure:
The samples are preliminarily tested under the situation that each sample is 100 μg/tablet, and the samples are found to have better activities. Then a dilution multiple method is adopted for testing the MIC values (the diameters of the paper sheets are 6 mm, 6-10 mm means weak activity, 10-15 mm means medium activity and 15 mm or more means strong activity).

A short description of data set [3]: Artemia larva lethal test. The note with it: Artemia (brine shrimp) larvae, in vivo; against Artemia larvae. The data set is classed as in vivo. Here is the method:
as §1, §2, §3

In brackets after ≈: the same amount, converted by molar mass. Entries after “also recorded” stand apart in the source; their conditions may differ. Like-named read-outs stand apart in the source and are kept apart here.

As for `CC(C)C[C@H]1NC(=O)[C@H]2CCCN2C1=O` [compound 3, Cyclo(D)-Pro-(D)-Leu], in the data set on Escherichia coli, the “inhibitory activity against Escherichia coli (in words)” value is reported as “weaker”. In the data set on Artemia larvae, the LC50 amounted to 87.63 mg/L (≈ 417 µM), the LC50 value was determined as 87.63 mg/L (≈ 417 µM) and the “lethal Artemia activity (in words)” value was “better lethal Artemia activity”. Also, in the data set with Vibrio anguillarum [1], the MIC was 0.04 mg/L (≈ 0.19 µM) and the “activity against Vibrio anguillarum (in words)” value is listed as “better inhibitory activity; also recorded: great bactericidal activity”.

Consider `O=C1N[C@H](Cc2ccccc2)C(=O)N2C[C@@H](O)C[C@H]12` (relative stereo) [compound 4, Cyclo(D)-trans-4-OH-Pro-(D)-Phe], for which the “inhibitory activity against Escherichia coli (in words)” value in the data set on Escherichia coli is recorded as “weaker”. Also, in the data set on Artemia larvae, the LC50 came out at 13.45 mg/L (≈ 51.7 µM), the LC50 value was 13.45 mg/L (≈ 51.7 µM) and the “lethal Artemia activity (in words)” value is “better lethal Artemia activity”. In addition, in the data set with Vibrio anguillarum [1], the MIC is 0.07 mg/L (≈ 0.269 µM) and the “activity against Vibrio anguillarum (in words)” value is reported as “better inhibitory activity; also recorded: great bactericidal activity”.

For the compound `CC[C@@H](C)[C@H]1NC(=O)[C@H]2CCCN2C1=O` [compound 2, Cyclo(D)-Pro-(D)-Ile], in the data set with Escherichia coli, the “inhibitory activity against Escherichia coli (in words)” value was “weaker”. Further, in the data set with Artemia larvae, the 50% lethal concentration (LC50) stood at 55.67 mg/L (≈ 265 µM), the LC50 value is 55.67 mg/L (≈ 265 µM) and the “lethal Artemia activity (in words)” value is recorded as “better lethal Artemia activity”. Moreover, in the data set on Vibrio anguillarum [1], the MIC is 0.05 mg/L (≈ 0.238 µM) and the “activity against Vibrio anguillarum (in words)” value was “better inhibitory activity; also recorded: great bactericidal activity”.

Turning to `CCCCCC/C=C/CCC1C=CCC(=O)O1` (stereo not shown) [compound 1], the MIC in the data set with Vibrio anguillarum [2] (against Vibrio anguillarum, LB medium, 37° C., observed after 24 h) is more than 100 mg/L; in the data set on Escherichia coli (against Escherichia coli, LB medium, 37° C., observed after 24 h, read-out: MIC), 1.58 mg/L (≈ 6.68 µM); in the data set with Escherichia coli (anti-Escherichia coli activity, read-out: MIC (minimal inhibitory concentration) value), 1.58 mg/L (≈ 6.68 µM). Besides, in the data set with Vibrio anguillarum [2] (compound 1), the “inhibitory activity against Vibrio anguillarum (in words)” value is reported as “weaker”. For the same compound, the “inhibitory activity against Escherichia coli (in words)” value in the data set with Escherichia coli is recorded as “better inhibitory activity”. The same compound showed an LC50 at 24 h in data set [3] of 3.25 mg/L (≈ 13.8 µM). The “lethal Artemia activity (in words)” value in the data set with Artemia larvae is recorded as “better lethal Artemia activity; also recorded: very good”.

Source of the values: US9200301B2, “Marine streptomyces, pyranosesquiterpene compound, as well as preparation method and applications thereof” (SOUTH CHINA SEA INSTITUTE OF OCEANOLOGY, CHINESE ACADEMY OF …, priority 2011, dated 2015).
